“And” between values parts separate entries of the source, which are not always exact repeats. Equal values may be shown once. Results filed as inconclusive are left out. Residues, ends and D or L forms follow the SMILES beside them. *: point of attachment. Trt = c1ccc(C(c2ccccc2)(c2ccccc2)*)cc1; Cbz = O=C(OCc1ccccc1)*; Bn = c1ccc(C*)cc1; βAla = NCCC(=O)O
Test system: nude mice, A549 intrarenal xenograft, tumor weight change
Experiment: NCI In Vivo Anticancer Drug Screen. Data for tumor model A549 Human Adenocarcinoma of Lung with characteristics of Type II Alveolar Epithelial cells (intrarenal inoculation) in NU/NU BALB/C (nude) mice
Conditions: endpoint: mean tumor weight change, schedule: Q04DX003 (ip), higher = larger tumour
Outline: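 Mice bearing transplantable tumors were treated and survival or tumor size recorded. Values are given as treated-group measurement divided by vehicle-control measurement (T/C).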

[1] = dose: 100.0 mg/kg/injection, vehicle: saline with Tween-80
[2] = dose: 200.0 mg/kg/injection, vehicle: saline with Tween-80
[3] = dose: 150.0 mg/kg/injection, vehicle: Klucel (hydroxypropylcellulose) (HPC)
[4] = dose: 300.0 mg/kg/injection, vehicle: Klucel (hydroxypropylcellulose) (HPC)
[5] = dose: 25.0 mg/kg/injection, vehicle: saline
[6] = dose: 50.0 mg/kg/injection, vehicle: saline
[7] = dose: 100.0 mg/kg/injection, vehicle: saline
[8] = dose: 12.5 mg/kg/injection, vehicle: saline with Tween-80
[9] = dose: 25.0 mg/kg/injection, vehicle: saline with Tween-80
[10] = dose: 50.0 mg/kg/injection, vehicle: saline with Tween-80
[11] = dose: 150.0 mg/kg/injection, vehicle: distilled water + Tween-80 + alcohol
[12] = dose: 150.0 mg/kg/injection, vehicle: saline with Tween-80

## CC(/C=C/C=C/C=C/C=C/C=C/C(O)=C1/C(=O)C(CCC(=O)O)N(C)C1=O)=C\C(C)C(OC1CC(O)C(O)C(C)O1)C(C)C (stereo unspecified)
dose: 15.88 mg/kg/injection, vehicle: water
  T/C: 60 % of control
dose: 31.75 mg/kg/injection, vehicle: water
  T/C: 61 % of control
dose: 62.5 mg/kg/injection, vehicle: water
  T/C: 110 % of control
dose: 75.0 mg/kg/injection, vehicle: water
  T/C: 37 % of control

## O=C1C(=O)c2cccnc2-c2ncccc21
dose: 1.25 mg/kg/injection, vehicle: Klucel (hydroxypropylcellulose) (HPC)
  T/C: 59 % of control
dose: 2.5 mg/kg/injection, vehicle: Klucel (hydroxypropylcellulose) (HPC)
  T/C: 55 % of control
dose: 10.0 mg/kg/injection, vehicle: Klucel (hydroxypropylcellulose) (HPC)
  T/C: 6 % of control

## NC(=S)N/N=C/c1ccc(O)cn1
[1]
  T/C: 46 % of control
[2]
  T/C: 57 % of control
dose: 400.0 mg/kg/injection, vehicle: saline with Tween-80
  T/C: 53 % of control

## C=CCOc1cc2c(cc1C(C)c1ccc(OC)cc1)OCO2 (stereo unspecified)
dose: 75.0 mg/kg/injection, vehicle: Klucel (hydroxypropylcellulose) (HPC)
  T/C: 58 % of control
[3]
  T/C: 94 % of control and 77 % of control

## COC(=O)C(CSC(c1ccccc1)(c1ccccc1)c1ccccc1)NC(=O)C(CSCc1ccccc1)NC(=O)CCNC(=O)OCc1ccccc1 (stereo unspecified) ({Cbz-βAla}-Cys(Bn)-Cys(Trt)-OMe; configuration not given here)
dose: 100.0 mg/kg/injection, vehicle: Klucel + Tween-80
  T/C: 153 % of control
dose: 200.0 mg/kg/injection, vehicle: Klucel + Tween-80
  T/C: 112 % of control
dose: 400.0 mg/kg/injection, vehicle: Klucel + Tween-80
  T/C: 161 % of control
dose: 800.0 mg/kg/injection, vehicle: Klucel + Tween-80
  T/C: 109 % of control

## O=C1CNC(=O)N1CN1CCOCC1
[3]
  T/C: 198 % of control
[4]
  T/C: 69 % of control

## Nc1nc(Br)nc2c1ncn2C1CC(O)C(CO)O1 (stereo unspecified)
[5]
  T/C: 92 % of control
[6]
  T/C: 121 % of control
[7]
  T/C: 96 % of control
dose: 200.0 mg/kg/injection, vehicle: saline
  T/C: 74 % of control

## C[n+]1c(-c2ccc(NC(=O)c3ccc(C(=O)Nc4ccc(-c5cn6ccccc6[n+]5C)cc4)cc3)cc2)cn2ccccc21
[8]
  T/C: 47 % of control
[9]
  T/C: 49 % of control

## CNC(=O)OCc1nc(SC)n(C)c1COC(=O)NC
dose: 12.5 mg/kg/injection, vehicle: saline
  T/C: 156 % of control
[5]
  T/C: 28 % of control

## CN=C(NC)c1ccc(NC(=O)/C=C\c2ccc(/C=C/C(=O)Nc3ccc(C(=NC)NC)cc3)cc2)cc1
dose: 3.13 mg/kg/injection, vehicle: Klucel (hydroxypropylcellulose) (HPC)
  T/C: 47 % of control
dose: 6.25 mg/kg/injection, vehicle: Klucel (hydroxypropylcellulose) (HPC)
  T/C: 67 % of control
dose: 12.5 mg/kg/injection, vehicle: Klucel (hydroxypropylcellulose) (HPC)
  T/C: 47 % of control

## Cn1c2ccccc2c2ccc3c(c21)C(=O)C=CC3=O
[9]
  T/C: 61 % of control
[10]
  T/C: 26 % of control
[1]
  T/C: 38 % of control
[2]
  T/C: 35 % of control

## COc1cc2c(cc1OC)-c1c3c(cc4c1[C@@H](C2)N(C)CC4)OCO3
dose: 37.5 mg/kg/injection, vehicle: distilled water + Tween-80 + alcohol
  T/C: 89 % of control
dose: 75.0 mg/kg/injection, vehicle: distilled water + Tween-80 + alcohol
  T/C: 84 % of control
[11]
  T/C: 21 % of control

## COC1=C(C)C(=O)C2=C(C1=O)C(CO)N1C(C#N)C3CC4C(C1C2N1CCOC41)N3C (stereo unspecified)
dose: 1.25 mg/kg/injection, vehicle: saline + alcohol
  T/C: 117 % of control
dose: 2.5 mg/kg/injection, vehicle: saline + alcohol
  T/C: 45 % of control

## Cc1ccc(C(=O)NC2C(=O)NC(C(C)C)C(=O)N3CCCC3C(=O)N(C)CC(=O)N(C)C(C(C)C)C(=O)OC2C)c2c1Oc1c(c(C(=O)NC3C(=O)NC(C(C)C)C(=O)N4CCCC4C(=O)N(C)CC(=O)N(C)C(C(C)C)C(=O)OC3C)c3nc(-c4ccccc4)c(=O)oc3c1C)N2 (stereo unspecified)
dose: 0.36 mg/kg/injection, vehicle: water
  T/C: 101 % of control
dose: 0.5 mg/kg/injection, vehicle: water
  T/C: 61 % of control
dose: 0.6 mg/kg/injection, vehicle: water
  T/C: 94 % of control
dose: 1.67 mg/kg/injection, vehicle: water
  T/C: 62 % of control

## Cc1ccc(C(=O)Nc2ccc(S(=O)(=O)O)c3cc(S(=O)(=O)O)cc(S(=O)(=O)O)c23)cc1NC(=O)c1cccc(NC(=O)Nc2cccc(C(=O)Nc3cc(C(=O)Nc4ccc(S(=O)(=O)O)c5cc(S(=O)(=O)O)cc(S(=O)(=O)O)c45)ccc3C)c2)c1
[5]
  T/C: 99 % of control
[6]
  T/C: 100 % of control
[7]
  T/C: 112 % of control

## O=C(Nc1cccnc1)c1ccc([N+](=O)[O-])s1
[2]
  T/C: 38 % of control and 51 % of control

## CN(C)CCNc1ccc(CO)c2sc3ccc(O)cc3c(=O)c12
dose: 54.0 mg/kg/injection, vehicle: saline with Tween-80
  T/C: 5 % of control
dose: 90.0 mg/kg/injection, vehicle: saline with Tween-80
  T/C: 3 % of control
[12]
  T/C: 2 % of control and 12 % of control
dose: 250.0 mg/kg/injection, vehicle: saline with Tween-80
  T/C: -36 % of control

## CCCCCCCCCCCCN1C(C)=CS/C1=C\C=C\c1scc(C)[n+]1CCCCCCCCCCCC
dose: 0.75 mg/kg/injection, vehicle: saline with Tween-80
  T/C: 112 % of control
dose: 1.5 mg/kg/injection, vehicle: saline with Tween-80
  T/C: 87 % of control
dose: 6.0 mg/kg/injection, vehicle: saline with Tween-80
  T/C: 36 % of control

## CCOC(=O)/N=[N+](\[O-])c1ccccc1
[8]
  T/C: 156 % of control
[9]
  T/C: 245 % of control
[10]
  T/C: 217 % of control

## CC(CNC(=O)C12CC3CC(CC(C3)C1)C2)NC(=O)C12CC3CC(CC(C3)C1)C2 (stereo unspecified)
dose: 300.0 mg/kg/injection, vehicle: DMSO
  T/C: 106 % of control

## CC(C)(C)c1ccc(C(=O)N2CCOC23CCCCC3)cc1
[12]
  T/C: 55 % of control
dose: 300.0 mg/kg/injection, vehicle: saline with Tween-80
  T/C: 28 % of control
dose: 600.0 mg/kg/injection, vehicle: saline with Tween-80
  T/C: 63 % of control
dose: 1200.0 mg/kg/injection, vehicle: saline with Tween-80
  T/C: 42 % of control

## COC1=C(OC)C(=O)C(N(C)C)=C(CO)C1=O
[6]
  T/C: 123 % of control
[7]
  T/C: 173 % of control

## O=c1[nH]cc(F)c(=O)[nH]1
[5]
  T/C: 207 % of control
[7]
  T/C: 28 % of control

## Cc1nc(C(Cl)(Cl)Cl)[nH]c(=O)c1SCCO
[11]
  T/C: 31 % of control
dose: 150.0 mg/kg/injection, vehicle: distilled water + alcohol
  T/C: 50 % of control
dose: 300.0 mg/kg/injection, vehicle: distilled water + Tween-80 + alcohol
  T/C: 181 % of control
dose: 300.0 mg/kg/injection, vehicle: distilled water + alcohol
  T/C: 26 % of control
dose: 600.0 mg/kg/injection, vehicle: distilled water + alcohol
  T/C: 2 % of control

## Cc1cc(NC(=S)SCc2ccc3c(c2)OCO3)ccc1Cl
[4]
  T/C: 61 % of control
dose: 600.0 mg/kg/injection, vehicle: Klucel (hydroxypropylcellulose) (HPC)
  T/C: 73 % of control

## C=CCSC(C)=O
dose: 62.5 mg/kg/injection, vehicle: suspension in saline
  T/C: 83 % of control
dose: 125.0 mg/kg/injection, vehicle: suspension in saline
  T/C: 53 % of control
dose: 250.0 mg/kg/injection, vehicle: suspension in saline
  T/C: 90 % of control
dose: 500.0 mg/kg/injection, vehicle: suspension in saline
  T/C: 71 % of control

Source: PubChem BioAssay AID278 (DTP/NCI, 2004)
